The text below walks through data of patent US9890106B2, “Anti-cancer lead molecule” (KING ABDULLAH UNIVERSITY OF SCIENCE AND TECHNOLOGY, priority 2012, dated 2018).

In one data set the test system is BJ cells. Nature of the data set: APOPercentage dye-uptake apoptosis assay, BJ. It is filed as cell-based, human. The method, then: (§1) To further test if the cancer cells in present investigation are dying via apoptosis, a dye inclusion assay called APOPercentage was performed. APOPercentage™ is a dye-uptake assay that detects apoptotic cells during phospholipid phosphatidylserine (PS) trans-membrane movement. It has been established previously that APOPercentage™ can be used to detect early stages of apoptosis as efficiently as other technologies like Annexin V.
(§2) The cells were plated in 96 well plates at a density of 5×10^3 cells per well in triplicate in 90 μl of media. The cells were treated with 10 μl of desired concentration of plumbagin and derivative ‘A’ in DMEM media. The cells were incubated at 37° C. for 12 hr and 24 hr in different plates. 5 mM H2O2 was treated for 30 minutes to 1 hour as a positive control. The cells were stained with APOPercentage dye as per instructions from the vendor (Biocolor, UK). The cells were photographed with Nikon TS100 microscope. The OD was measured at 550 nm absorbance using BMG Pherastar and percentage of cells taking up APOPercentage dye was calculated.

Data set [1] has as its system MCF-7 cells. The data set can be described thus: APOPercentage dye-uptake apoptosis assay, MCF-7. The class given is cell-based, human. Here is the method: as §1, §2
Data set [2] relates to MCF-7 (human breast cancer cell line). Nature of the data set: MTT cytotoxicity assay, MCF-7. The method, then:
(§3) The cytotoxicity of plumbagin and derivative ‘A’ was estimated by MTT assay. Cells were plated in a 384-well culture plates (2000 cells per well in 20 μl of media) for 24 h and cells were treated with various concentrations (0, 1.0, 5.0, 10.0, 20.0, 40.0, 80.0 and 100.0 μM) for 12 hr, 24 hr, 36 hr and 48 hr. Following desired incubation time, 5 μl of sterile 5 mg/ml MTT (3-(4,5-Dimethylthiazol-z-yl)-2,5diphenyltetrazolium bromide) (Sigma) dissolved in PBS was added to each well and the cells were incubated for another 4 hr followed by the addition of 30 μl of solubilisation solution (10% SDS, 10 mM HCl) and incubation for 16 hr at 37° C. The OD of each well at 595 nm was determined using a microtiter plate reader (BMG Pherastar).

Data set [3] relates to BJ cell line (human normal fibroblast cells). The data set can be described thus: MTT cytotoxicity assay, BJ normal fibroblasts. The method, then:
as §3
For orientation: Tetrazolium assays rely on reduction of a dye to a coloured formazan, in cell work by metabolically active cells.

Data set [4] concerns HepG2 (Hepatocellular carcinoma) cell line. The data set can be described thus: MTT cytotoxicity assay, HepG2 (in vitro hepatotoxicity model). Conditions: for pIC50: read-out: IC50 against HepG2. The method, then:
as §3

The nature of data set [5]: Liver tissue H&E staining. It is filed as in vivo, nude mice. The settings on record: FIG. 12. Here is the method: To test the liver toxicity of the two compounds, livers were harvested from all animals while sacrificing the animals. One piece of the liver was fixed in 10% NBF, and embeded in paraffin for pathology analysis, 1 paraffin block was prepared from each liver sample, 2 slides were used for H&E staining.
The following indications were examined on the photographs for liver tissue H&E staining (FIG. 12): (1) If the liver cells produce fatty degeneration, necrosis, hepatic lobule inflammation or not; (2) If the hepaticus sinus produce dilation or hyperaemia or not; (3) If the hepaticus portal area produce the inflammation or fibrous tissue hyperplasia or not. According to pathology degree from low to high: no lesion “−”, minor lesion “±”, low lesion “+”, middle lesion “++”, high lesion “+++”, highest lesion “++++”. […] The vehicle control is rather showing more toxicity to liver as compared to compounds under testing.

On data set [6], the source says:
At the end of the experiment (the 22nd day after initiating drug treatment), the blood from some tumor-bearing mice per group (4 mice from the group 1, 5 mice from the group 2, 4 mice from the group 3) were collected by cardiac puncture, and the mice were sacrificed by cervical dislocation while under deep anesthesia. The other tumor-bearing mice from each group (5 mice from the group 1, 5 mice from the group 2) were sacrificed after another 13 days treatment (the 35th day after initiating drug treatment), the blood was collected while sacrificing the mice. The tumor samples were harvested, weighed, cut into small pieces and snap frozen in liquid nitrogen for RNA extraction. The liver were harvested and fixed in 10% NBF, and embedded in paraffin for histology analysis.
Blood were collected from all animals by terminal bleed for subsequent serum preparation, and serum was prepared at the end of the study for each animal. Serum samples were frozen in microcentrifuge tube at −80° C. To test the liver toxicity of the two compounds, biochemical dictators (ALT, AST) were analyzed in all the serum samples no more than 3 days after collection. The excess serum samples would be sent to client.
The serum was collected as explained above in methods and was used to assess the activity of ALT (alanine aminotransferase) and AST (aspartate aminotransferase).

A further data set concerns MCF-7 tumor. Nature of the data set: MCF-7 xenograft tumor inhibition in nude mice. It is filed as in vivo. More on the design: Tumor weight at autopsy, individual mouse (1-5) / Tumor weight at autopsy, AV: unit not given here. The settings on record: for Tumor volume measured externally, AV / Tumor volume measured externally, individual mouse (1-5) / Tumor weight at autopsy, AV / Tumor weight at autopsy, individual mouse (1-5) / Tumor inhibition rate (C − T)/C × 100%, tumor volume / Tumor inhibition rate (C − T)/C × 100%, tumor weight: Compound A 5 mg/kg, Compound P 2 mg/kg, i.p, qd*21 days; for Tumor inhibition rate (C − T)/C × 100%, tumor volume: based on tumor volume by calipers; for Tumor inhibition rate (C − T)/C × 100%, tumor weight: based on tumor weight at autopsy. The method, then: Amplified and implanted (S.C.) the cancer cells (MCF-7) into 4 nude mice with 1.0×10^7 cells in 0.1 ml PBS plus matrigel (1:1) /mouse, when tumors reach 300-500 mm^3, the tumor masses were harvested, cut into small pieces of approximately 1-2 mm^3, and then surgically implanted into the 42 new nude mice for model set up (eventually 30 tumor-bearing mice are selected).
(§4) When the tumor size reached a volume of 150 (150-220) mm^3, the tumor-bearing nude mice derived from MCF-7 cells were randomly assigned into 3 groups (10 mice/group): Group 1 was served as vehicle group (25% PEG400, 200 μl/20 g mouse, i.p, qd for 21 days and 25% PEG400, 400 μl/20g mouse, i.p, qd for 13 days), group 2 was administrated with derivative ‘A’ (5 mg/kg for 21 days and 10 mg/kg for 13 days, i.p, qd), group 3 was administrated with plumbagin (2 mg/kg for 21 days, i.p, qd). The administration period lasted for 3 weeks and 5 weeks. The detailed sacrificing schedule is described in section 5.
(§5) The tumor volume was measured every other day with calipers, and the body weight was measured immediately before measuring the tumor volume throughout the whole study. If the body weight loss is approaching 20%, stop dosing or decreased dosage will be carried out.
Tumor sizes were measured every other day in two dimensions using a caliper, and the volume were expressed in mm^3 using the formula: V=½×a×b^2 where a and b are the long and short diameters of the tumor, respectively.
The tumor mass were weighed and photographed at the end of the experiment after harvested.
Inhibition rate (%)=(average tumor volume of control group-average cancer volume of test group)/average tumor volume of control group ×100%

Data set [7] relates to MCF-7 cells. Nature of the data set: Microarray expression and pathway analysis in MCF-7 cells. Conditions: for 'Atherosclerosis signaling' pathway: MCF-7 induced with 5 and 10 μM, IPA pathway mapping. It is filed as cell-based, human. Here is the method:
Microarray analysis was performed in an effort to identify the possible mechanism of action of derivative ‘A’. The MCF-7 cells induced with 5 and 10 μM of derivative ‘A’ and plumbagin were subjected to microarray experiments and the fold-change in expression was calculated as compared to untreated samples. The lists of differentially expressed genes were mapped to pathways using Ingenuity Pathway Analysis (IPA) tool and several key pathways affected by treatment of derivative ‘A’ and plumbagin were identified. ‘Atherosclerosis signaling’ was one of the key pathways that were affected by derivative ‘A’ and not the plumbagin.

Data set [8] is described as follows: General toxicity in nude mice (mortality, tolerance, body weight). It is filed as in vivo. Here is the method:
as §4
If abnormal appearance and behavior or signs of morbidity and/or mortality was seen through the cage side observation, the veterinarian would be notified and proper physical examination and/or necropsy would be performed. The food consumption in each group would be recorded. Frequency: daily just after the cell inoculation and twice a day thereafter starting on first dosing.
as §5
The use of different treatment concentrations (dosages) of derivative ‘A’ and plumbagin was due to the high toxicity of plumbagin at 5 mg/kg dose (8 mice died due to toxicity in first few days).

Setting [9] is: after 24 hr (20 μM per preceding sentence).
Setting [10] is: MTT time-course screening (12, 24, 36, 48 hr).

As a reminder, the pIC50 is the negative decadic logarithm of the IC50, by convention in mol/L.

pIC50: −log10 of the molar value. Several values for one entry are separate records, joined by “and”; a condition that tells them apart may be missing. Identical values can stand only once. Like-named read-outs stand apart in the source and are kept apart here.

Consider `CC(=O)Oc1cccc2c1C(=O)C=C(C)C2=O` [derivative ‘A’, acetyl plumbagin], for which the “safety for normal cells” value in the data set on BJ cells (10 μM, treatment for 24 hr) was “safe”. Also, in the data set on BJ cells (setting [9]), the “normal cells undergoing apoptosis” value is reported as 20%. Besides, in the data set with BJ cells (up to 20 μM, treatment for 12 hr), the “effect on normal cells (growth inhibition and apoptosis)” value is “relatively unaffected”. Further, the “apoptosis induced in cancer cells” value in the data set on MCF-7 cells [1] (10 μM, 24 hr) is recorded as “about 50%”. The “cancer cells undergoing apoptosis” value in the data set with MCF-7 cells [1] (setting [9]) was found to be 100%. Also, in data set [2] (10 μM, 12 hr of treatment), the “cytotoxicity in MCF-7” value is “comparative to plumbagin”. Also, the “inhibits metabolic activity of cancer cells” value in data set [2] (10 μM, after 12 hr of treatment (FIG. 2)) was found to be 90%. In addition, the “activity against MCF-7 cells” value in data set [2] (setting [10]) is “selective apoptotic activity”. For the same compound, the “toxicity against BJ cell line” value in data set [3] (10 μM, 12 hr) is reported as “almost nil”. In addition, in data set [3] (10 μM, 24 hr, compared to plumbagin at the same concentration), the “toxicity against BJ cell line, times less than plumbagin” value was around 20 times. In addition, in data set [3] (20 μM, after 36 hr of treatment (FIG. 2)), the “normal cells BJ inhibited” value worked out at 20%. The “effect on normal fibroblasts” value in [3] (setting [10]) is on record as “relatively unaffected”. Moreover, in [3] (after 36 hr of induction), the “toxicity in BJ cell line, folds less than Plumbagin” value is on record as around 4.5 folds. Moreover, the “hepatotoxicity (data based on HepG2 cell line)” value in data set [4] (setting [10]) was “negligible”. For the same compound, in data set [4] (HepG2, 24 hr of treatment), the pIC50 was 4.38. Besides, the “liver toxicity by H&E staining of liver tissue” value in data set [5] is listed as “less toxic to liver as compared to plumbagin”. Besides, in data set [6] (in vivo summary), the “ALT and AST values” is “low”. The “mean ALT value (FIG. 10)” value in data set [6] (outliers removed) was “lower than plumbagin and even lower than vehicle treated mice”. Moreover, in the data set with MCF-7 tumor, the “Tumor volume measured externally, AV” value is 420.9 mm^3; the “Tumor volume measured externally, individual mouse (1-5)” value was 493.1 mm^3 and 595.4 mm^3 and 151.4 mm^3 and 486.0 mm^3 and 378.5 mm^3; the “Tumor weight at autopsy, AV” value was found to be 0.3145; the “Tumor weight at autopsy, individual mouse (1-5)” value was 0.3930 and 0.3862 and 0.3802 and 0.3290 and 0.0843. Further, in the data set with MCF-7 tumor, the “Tumor inhibition rate (C − T)/C × 100%, tumor volume” value is 37.69% and the “Tumor inhibition rate (C − T)/C × 100%, tumor weight” value is 44.96%. In addition, the “tumor size (FIGS. 6A-6B)” value in the data set on MCF-7 tumor (group of treated mice versus other groups) is “smaller”. Moreover, the “gene families down-regulated as compared to untreated samples” value in the data set with MCF-7 cells [7] (MCF-7, 10 μM, interleukins, MMPs, CXCL family members) is given as above 2 fold. Moreover, in the data set on MCF-7 cells [7], the “'Atherosclerosis signaling' pathway” value was “affected”. Besides, the “animal deaths with treatment” value in data set [8] (5 mg/kg 21 days, 10 mg/kg 13 days, i.p, qd) was “No animal died”. The body weight loss result in [8] (in the course of the treatment) is reported as “minimum”.

With `CC1=CC(=O)c2c(O)cccc2C1=O` [plumbagin, 5-hydroxy-2-methyl-1,4-naphthoquinone, reference compound], in the data set on MCF-7 cells [1] (5 μM, within 24 hr of treatment), the “apoptosis in cancer cells” value is recorded as “induces apoptosis”. Also, the inhibition at 5 µM in [2] (Homo sapiens, MCF7, 12 h, read-out: inhibits metabolic activity of cancer cells) turned out to be 90%. Further, the inhibition at 10 µM in data set [3] (Homo sapiens, BJ, 12 h, read-out: inhibits metabolic activity of normal cells BJ) is around 70%. Moreover, in [4] (Homo sapiens, HepG2, 24 h), the pIC50 was 4.99. For the same compound, in the data set with MCF-7 tumor, the “Tumor volume measured externally, AV” value is given as 560.2 mm^3; the “Tumor weight at autopsy, AV” value is recorded as 0.6020; the “Tumor inhibition rate (C − T)/C × 100%, tumor volume” value turned out to be 17.07%; the “Tumor inhibition rate (C − T)/C × 100%, tumor weight” value is given as −5.35%. In the data set with MCF-7 tumor (listed as Compound P), the “Tumor volume measured externally, individual mouse (1-5)” value was 1441.7 mm^3 and 260.9 mm^3 and 234.5 mm^3 and 303.8 mm^3; the “Tumor weight at autopsy, individual mouse (1-5)” value is 1.3530 and 0.4301 and 0.3675 and 0.2574. Also, the “'Atherosclerosis signaling' pathway” value in the data set on MCF-7 cells [7] is recorded as “not”. In [8] (2 mg/kg dose, separate regimen with 1, 2 and 3 mg/kg), the “tolerance by mice (body weight loss)” value is “well tolerated”.
